Assay results: ChEMBL document CHEMBL1155835 (J Med Chem, 2008)

Test system: not listed separately
Assay: Inhibition of hamster liver ALDH2
Parameters: species or system Cricetinae

Row | IC50 [nM] | SMILES
1 | 1500 | CCCCCCOc1ccc2c(=O)c(-c3ccc(O)cc3)coc2c1
2 | 50 | O=C(O)CCCCCCCCCOc1ccc2c(=O)c(-c3ccc(O)cc3)coc2c1
3 | 100 | O=C(O)CCCCOc1ccc2c(=O)c(-c3ccc(O)cc3)coc2c1
4 | > 9000 | CCCCCCCCCCCCOc1ccc2c(=O)c(-c3ccc(O)cc3)coc2c1
5 | 40 | O=c1c(-c2ccc(O)cc2)coc2cc(OCCOCCOCCO)ccc12
6 | 40 | O=C(O)CCCCCCCOc1ccc2c(=O)c(-c3ccc(O)cc3)coc2c1
7 | 80 | CCOc1ccc2c(=O)c(-c3ccc(O)cc3)coc2c1
8 | 130 | O=C(O)CCCCCCCCCCCOc1ccc2c(=O)c(-c3ccc(O)cc3)coc2c1
9 | 1200 | O=C(O)COc1ccc2c(=O)c(-c3ccc(O)cc3)coc2c1
10 | 9000 | O=c1c(-c2ccc(O)cc2)coc2cc(O)ccc12 [DAIDZEIN]

Biological target: T1, Aldehyde dehydrogenase, mitochondrial (Homo sapiens, UniProt P05091)
T1 sequence (P05091 whole entry): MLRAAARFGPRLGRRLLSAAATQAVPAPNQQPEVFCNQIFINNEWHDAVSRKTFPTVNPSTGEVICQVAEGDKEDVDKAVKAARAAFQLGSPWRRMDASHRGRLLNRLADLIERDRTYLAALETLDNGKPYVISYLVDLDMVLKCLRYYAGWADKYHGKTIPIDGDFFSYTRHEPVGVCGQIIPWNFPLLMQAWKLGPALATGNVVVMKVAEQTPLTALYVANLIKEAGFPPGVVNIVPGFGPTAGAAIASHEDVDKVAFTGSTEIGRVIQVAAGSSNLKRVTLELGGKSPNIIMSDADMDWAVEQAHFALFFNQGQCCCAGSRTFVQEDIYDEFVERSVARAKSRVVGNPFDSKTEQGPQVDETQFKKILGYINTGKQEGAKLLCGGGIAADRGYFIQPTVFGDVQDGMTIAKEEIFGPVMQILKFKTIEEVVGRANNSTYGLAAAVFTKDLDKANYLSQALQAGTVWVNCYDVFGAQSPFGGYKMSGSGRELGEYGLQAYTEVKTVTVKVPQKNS
Assay: Inhibition of human recombinant ALDH2

Row | Ki [nM] | SMILES
11 | 450 | COc1cc(O)c2c(=O)c(-c3ccc(O)cc3)coc2c1 [PRUNETIN]
